Converted amounts (≈) assume the structure as drawn. The source made the active and inactive calls. The calls are words filed in the database; no cut-off is given here.
Experiments:
Escherichia coli = experiment: Antibacterial activity against Escherichia coli; assay type: functional, organism-based
P388 = experiment: Cytotoxicity against mouse P388 cells; assay type: functional, cell-based

## C=CCCCCCCCC#CC#CCOCC(=O)O [MONOTIPORIC ACID B]
Escherichia coli
  Activity: Active
P388
  IC50: 12 µg/mL (≈ 45.7 µM)

## CCCCCCCC#CC#CCOCC(=O)O [MONOTIPORIC ACID A]
Escherichia coli
  Activity: Active
P388
  IC50: 5 µg/mL (≈ 21.2 µM)

Source: ChEMBL document CHEMBL1158281, “Montiporic acids A and B, cytotoxic and antimicrobial polyacetylene carboxylic acids from eggs of the scleractinian coral Montipora digitata” (J Nat Prod, 1996)
